Tests used:
SfaA = assay: AMP PPi assay of the putative meta-hydroxylase SfaA expressed in E. coli; format: biochemical, Streptomyces sp. A92-308110 (S. flaveolus)
From the text: Traditional phenylalanine/tyrosine/tryptophan hydroxylation systems all rely on an electrophilic substitution reaction to realize hydroxylation in the electron-rich regions of aromatic systems. On the contrary, the meta-hydroxylation of phenylalanine occurs at the relatively electron-poor meta position of phenylalanine. […] The putative meta-hydroxylase, SfaA, was expressed in E. coli and isolated using standard methods.

SfaR = assay: in vitro activity of purified His-tagged SfaR (reduction / reductive carboxylation) on acyl substrates; format: biochemical, Streptomyces sp A92-309110 (S. flaveolus)
From the text: To validate the central role of SfaR for unusual building block supply in the proposed pathway, we first inactivated sfaR by in-frame deletion. […] Secondly, we heterologously expressed and purified the N-terminal 6× His-tagged SfaR to near homogeneity for in vitro studies. As expected, in the presence of NADPH and bicarbonate, crotonyl-S-CoA (FIG. 7, 4) was efficiently converted by SfaR to the major product ethylmalonyl-S-CoA (FIG. 7, 5) along with the shunt product butyryl-S-CoA (FIG. 7, 7). […] To exclude the possibility that the reaction directly occurs on the ACP, SfaO was expressed and purified as a N-terminal 6×His-tagged derivative. […] Thirdly, to detect the substrate flexibility of SfaR, we synthesized the 5-carbon substrate pentenyl-S-CoA.

MLR = conditions: compared with SFA; cited from earlier work

CC(=O)NCCSC(=O)C(N)Cc1ccccc1 (centres unmarked)
activity of SfaA on the substrate (SfaA): did show activity

N[C@@H](Cc1ccccc1)C(=O)O [phenylalanine]
activity of SfaA on the substrate (SfaA): no activity

CC/C=C/C(=O)SCCNC(=O)CCNC(=O)[C@H](O)C(C)(C)COP(=O)(O)OP(=O)(O)OC[C@H]1O[C@@H](n2cnc3c(N)ncnc32)[C@H](O)[C@@H]1OP(=O)(O)O [pentenyl-S-CoA]
Km (SfaR; pentenyl-S-CoA in reductively producing pentanoyl-S-CoA): 1400 µM

sanglifehrin B
immunosuppressive activity in MLR assays (MLR): higher immunosuppressive activity than SFA

C/C=C/C(=O)SCCNC(=O)CCNC(=O)[C@H](O)C(C)(C)COP(=O)(O)OP(=O)(O)OC[C@H]1O[C@@H](n2cnc3c(N)ncnc32)[C@H](O)[C@@H]1OP(=O)(O)O [crotonyl-S-CoA]
Km (SfaR; substrate crotonyl-S-CoA, SfaR, NADPH): 840 µM

From patent US8962329B2, “Gene cluster” (Shanghai Institute of Organic Chemistry, Chinese Academy of …, priority 2008, dated 2015)
